Here are results for 2 molecules from PMC8269059, “Glycyrrhizin Derivatives Suppress Cancer Chemoresistance by Inhibiting Progesterone Receptor Membrane Component 1” (Cancers, 2021).

The structures appear in SMILES notation.

For one data set, the target named is T1, HMGB1 (Homo sapiens, UniProt P09429).
T1 construct: human HMGB1 full-length cDNA was cloned from cDNA library of HCT116 cells; GST (N, cleaved yes); made in house; host or cells: E. coli BL21 (DE3)
Briefly: ITC binding to HMGB1. To be noted: HMGB1 80 µM, compound 3 mM. The source says: (§1) Bacterial expression vectors pGEX-PGRMC1 (human PGRMC1 intracellular domain residues 43-195) and mammalian FLAG-tagged expression vector pCMV-FLAG-PGRMC1 (full-length) were constructed as described previously. Expression vectors for PGRMC1 point mutants were generated by site-directed mutagenesis with PCR. For construction of HMGB1 expression vector, human HMGB1 full-length cDNA was cloned from cDNA library of HCT116 cells using the primers (Forward: 5′-[…]-3′, Reverse: 5′-[…]-[…]-3′), digested with Bam HI and Sal I, and then ligated into pGEX6P1.
Expression vectors (pGEX-PGRMC1 (residues 43-195) or pGEX-HMGB1) were transformed into BL21 (DE3) competent E. coli cells, and the cells incubated in LB medium with ampicillin at 37 °C until the OD600 reached 0.8. Protein expression was induced by adding 1 mM isopropyl-β-thiogalactopyranoside (IPTG) and incubating at 37 °C for 4 h. […]
ITC experiments were performed at 298 K with ITC-Buffer (50 mM phosphate [pH 7.0]) using a MicroCal iTC200 (Malvern Panalytical, Malvern, UK). […] Binding isotherms were analyzed using SEDPHAT [35]. The binding of AG205 to apo- or heme-PGRMC1 (100 μM) was analyzed using a concentration of 3 mM containing 1% DMSO. […]

A further data set deals with HuH7 cells. Briefly: Chemosensitivity MTT assay in HuH7 cells. The class given is cell-based, human. The procedure:
The HCT116 cells, a human colon cancer cell line, and HuH7 cells, a human hepatoma cell line, were maintained in Dulbecco’s modified Eagle’s medium (DMEM) containing 10% fetal bovine serum (FBS) and 1% penicillin-streptomycin at 37 °C in a 5% CO2 humidified incubator. The PGRMC1 knockdown (KD) cell line was established in a previous study using lentivirus vectors.
To analyze the chemosensitivity of HCT116 or HuH7 cells, the cells were incubated with erlotinib (20 µM) or CDDP (10 µM) and either GL or GL derivatives for 24 h on a 96-well plate. Cell viability was determined using an MTT assay kit (Millipore, Burlington, MA, USA) according to the manufacturer’s instructions.
On the technique in general: Tetrazolium assays rely on reduction of a dye to a coloured formazan, in cell work by metabolically active cells.

The target of the next data set is T2, EGFR kinase (Homo sapiens, UniProt P00533).
T2 construct: purchased BPS Bioscience
Briefly: EGFR kinase assay in vitro. Format: biochemical. The note with it: Kinase-Glo, erlotinib 100nM.

Data set [1] has as its target T3, interaction between PGRMC1 and CYP3A4 (Homo sapiens, UniProt O00264).
T3 construct: FLAG-PGRMC1 (a.a. 44-195); Sigma (CYP3A4 only) C4982 (CYP3A4 only)
Briefly: In vitro binding assay between PGRMC1 and CYP3A4. The note with it: purified proteins, co-IP. The method, then: For in vitro binding assays between PGRMC1 and CYP3A4, 1 μg of purified CYP3A4 proteins (Sigma: C4982) were incubated with 10 μg of FLAG-PGRMC1 (a.a. 44-195) treated with or without GL or GlucoGL in 500 μL of binding buffer containing 20 mM HEPES-NaOH (pH 7.9), 100 mM NaCl, 0.2 mM EDTA, 10% glycerol, and 0.1% NP40 for 60 min at room temperature. Then, 10 μL of equilibrated anti-FLAG (M2) agarose was added to the mixture, which was then incubated for 60 min at room temperature. Bound proteins were washed three times with 200 μL of binding buffer and eluted with 10 μL of 2 μg/mL FLAG elution peptide (Sigma: F4799). The eluates were subjected to SDS–PAGE and visualized by Western blotting using antibodies against CYP3A4 (Santa Cruz: sc-53850) and FLAG.

A further data set has as its target T4, PGRMC1 G108W (Homo sapiens, UniProt O00264, G108W).
T4 construct: human PGRMC1 intracellular domain residues 43-195; GST (N, cleaved yes); made in house; host or cells: E. coli BL21 (DE3)
Briefly: ITC binding of GL to PGRMC1 mutant G108W.
Excerpt: as §1
(§2) ITC experiments were performed at 298 K with ITC-Buffer (50 mM phosphate [pH 7.0]) using a MicroCal iTC200 (Malvern Panalytical, Malvern, UK). GL derivatives were dissolved in […] and titrated into 100 μM apo-PGRMC1, heme-bound-PGRMC1, or HMGB1 protein. Titration was performed by injecting 2 µL of the syringe solution at intervals of 120 s. Binding isotherms were analyzed using SEDPHAT [35]. The binding of AG205 to apo- or heme-PGRMC1 (100 μM) was analyzed using a concentration of 3 mM containing 1% DMSO. The binding affinities of GL derivatives for HMGB1 (80 µM) were analyzed using a concentration of 3 mM.

The target of the next data set is T5, PGRMC1 G111W (Homo sapiens, UniProt O00264, G111W).
T5 construct: human PGRMC1 intracellular domain residues 43-195; GST (N, cleaved yes); made in house; host or cells: E. coli BL21 (DE3)
Briefly: ITC binding of GL to PGRMC1 mutant G111W.
Excerpt: as §1, §2

For a further data set, the target named is T6, PGRMC1 F128W (Homo sapiens, UniProt O00264, F128W).
T6 construct: human PGRMC1 intracellular domain residues 43-195; GST (N, cleaved yes); made in house; host or cells: E. coli BL21 (DE3)
Briefly: ITC binding of GL to PGRMC1 mutant F128W.
Excerpt: as §1, §2

For another data set, the target named is T7, PGRMC1 K132V (Homo sapiens, UniProt O00264, K132V).
T7 construct: human PGRMC1 intracellular domain residues 43-195; GST (N, cleaved yes); made in house; host or cells: E. coli BL21 (DE3)
Briefly: ITC binding of GL to PGRMC1 mutant K132V.
Excerpt: as §1, §2

The target in a further data set is T8, PGRMC1 T146W (Homo sapiens, UniProt O00264, T146W).
T8 construct: human PGRMC1 intracellular domain residues 43-195; GST (N, cleaved yes); made in house; host or cells: E. coli BL21 (DE3)
Briefly: ITC binding of GL to PGRMC1 mutant T146W.
Excerpt: as §1, §2

T5 sequence (O00264 43-195 G111W): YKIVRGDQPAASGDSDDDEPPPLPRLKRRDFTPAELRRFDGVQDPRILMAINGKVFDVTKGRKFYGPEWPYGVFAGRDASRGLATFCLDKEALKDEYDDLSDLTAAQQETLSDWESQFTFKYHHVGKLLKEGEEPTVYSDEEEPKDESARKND
T4 sequence (O00264 43-195 G108W): as the sequence (O00264 43-195 G111W) above, with G66W, W69G counted along it
T6 sequence (O00264 43-195 F128W): as the sequence (O00264 43-195 G111W) above, with W69G, F86W counted along it
T7 sequence (O00264 43-195 K132V): as the sequence (O00264 43-195 G111W) above, with W69G, K90V counted along it
T8 sequence (O00264 43-195 T146W): as the sequence (O00264 43-195 G111W) above, with W69G, T104W counted along it
T1 sequence (P09429 whole entry): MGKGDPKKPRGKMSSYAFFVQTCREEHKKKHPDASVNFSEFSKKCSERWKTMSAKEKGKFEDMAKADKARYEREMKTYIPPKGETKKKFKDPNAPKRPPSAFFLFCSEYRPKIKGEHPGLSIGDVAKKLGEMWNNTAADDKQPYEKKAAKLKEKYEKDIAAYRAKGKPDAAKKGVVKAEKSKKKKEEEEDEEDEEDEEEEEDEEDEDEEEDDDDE
T3 sequence (O00264 44-195): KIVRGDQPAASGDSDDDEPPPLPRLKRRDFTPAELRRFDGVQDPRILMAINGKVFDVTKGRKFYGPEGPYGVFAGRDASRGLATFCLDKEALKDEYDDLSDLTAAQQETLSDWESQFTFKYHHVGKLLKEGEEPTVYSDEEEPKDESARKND
T2 sequence (P00533 25-1210): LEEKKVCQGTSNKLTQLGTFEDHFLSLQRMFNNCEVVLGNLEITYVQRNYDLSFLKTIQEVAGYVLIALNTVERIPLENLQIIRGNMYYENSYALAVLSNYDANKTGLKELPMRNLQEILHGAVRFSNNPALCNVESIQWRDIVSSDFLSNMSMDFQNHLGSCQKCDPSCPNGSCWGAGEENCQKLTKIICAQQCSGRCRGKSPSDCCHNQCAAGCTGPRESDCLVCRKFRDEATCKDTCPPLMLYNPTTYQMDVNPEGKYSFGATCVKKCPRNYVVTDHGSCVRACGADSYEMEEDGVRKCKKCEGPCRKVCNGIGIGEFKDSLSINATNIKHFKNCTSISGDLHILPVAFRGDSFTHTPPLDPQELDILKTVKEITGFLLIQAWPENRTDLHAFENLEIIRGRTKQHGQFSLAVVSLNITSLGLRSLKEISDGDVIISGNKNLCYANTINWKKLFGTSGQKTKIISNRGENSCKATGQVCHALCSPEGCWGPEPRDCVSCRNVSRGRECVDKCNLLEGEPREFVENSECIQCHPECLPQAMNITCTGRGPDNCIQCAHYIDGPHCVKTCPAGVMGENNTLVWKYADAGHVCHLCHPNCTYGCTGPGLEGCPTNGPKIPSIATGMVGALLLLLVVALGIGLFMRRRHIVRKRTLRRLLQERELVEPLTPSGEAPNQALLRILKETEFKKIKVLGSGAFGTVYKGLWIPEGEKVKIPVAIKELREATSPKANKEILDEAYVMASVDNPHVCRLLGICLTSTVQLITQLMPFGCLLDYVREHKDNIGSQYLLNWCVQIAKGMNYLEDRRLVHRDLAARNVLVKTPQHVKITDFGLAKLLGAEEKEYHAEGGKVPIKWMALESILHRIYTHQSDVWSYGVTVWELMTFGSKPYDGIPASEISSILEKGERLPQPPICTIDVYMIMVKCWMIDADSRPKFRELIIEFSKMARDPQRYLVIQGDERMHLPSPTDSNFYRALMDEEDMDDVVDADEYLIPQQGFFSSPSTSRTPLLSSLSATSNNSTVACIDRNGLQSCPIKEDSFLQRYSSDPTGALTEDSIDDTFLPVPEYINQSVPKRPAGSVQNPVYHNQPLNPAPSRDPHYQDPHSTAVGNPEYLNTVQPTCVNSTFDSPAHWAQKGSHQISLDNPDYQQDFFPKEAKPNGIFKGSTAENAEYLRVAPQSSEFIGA
Protocol for EGFR kinase: The assay was performed using an EGFR kinase assay kit (BPS Bioscience, San Diego, CA, USA). EGFR kinase activity was analyzed by measuring the amount of ATP remaining following the kinase reaction based on luminescent intensity using Kinase-Glo MAX (Promega, Madison, WI, USA). A mixture of kinase buffer, ATP, and PTK substrate was incubated with EGFR (1 ng/µL) with or without GL or GlucoGL at 30 °C for 40 min. Kinase-Glo max was added to each well and incubated at room temperature for 15 min under light protection. Luminescent intensity was measured using a microplate reader.

`CC1(C(=O)O)CCC2(C)CCC3(C)C(=CC(=O)C4C5(C)CCC(OC6OC(C(=O)O)C(O)C(O)C6OC6OC(CO)C(O)C(O)C6O)C(C)(C)C5CCC43C)C2C1` (centres unmarked) [Glucoglycyrrhizin (GlucoGL), Glucoglycyrrhizin]: the “KD for HMGB1” value on HMGB1 is given as “weak binding”. Moreover, the “Cell viability with erlotinib or CDDP” value with HuH7 cells is on record as “significantly suppressed cell viability”. Besides, the EGFR kinase activity entry at EGFR kinase is given as “no inhibitory effect”. The “Interaction between PGRMC1 and CYP3A4” value in data set [1] is listed as “interfered with the interaction”.

Consider `CC1(C)[C@@H](O[C@H]2O[C@H](C(=O)O)[C@@H](O)[C@H](O)[C@H]2O[C@@H]2O[C@H](C(=O)O)[C@@H](O)[C@H](O)[C@H]2O)CC[C@]2(C)[C@H]3C(=O)C=C4[C@@H]5C[C@@](C)(C(=O)O)CC[C@]5(C)CC[C@@]4(C)[C@]3(C)CC[C@@H]12` [Glycyrrhizin (GL), Glycyrrhizin], for which the Kd (as a rule, the free concentration of one partner at which half of the binding sites on the other are occupied at equilibrium, for simple one-to-one binding) at HMGB1 is 223 µM; at PGRMC1 G108W it was 185 µM; at PGRMC1 G111W, 108 µM; at PGRMC1 F128W, 137 µM; at PGRMC1 K132V, 84.6 µM; on PGRMC1 T146W it was 97.9 µM. The “Cell viability with erlotinib or CDDP” value in the data set on HuH7 cells is recorded as “significantly suppressed cell viability”. Also, the EGFR kinase activity result at EGFR kinase is “no inhibitory effect”. Besides, the “Interaction between PGRMC1 and CYP3A4” value in data set [1] is “interfered with the interaction”. Besides, the TΔS at PGRMC1 G108W is given as 1.58 K･kcal/mol; at PGRMC1 G111W it was 4.39 K･kcal/mol; at PGRMC1 F128W, 0.38 K･kcal/mol; on PGRMC1 K132V it was 4.55 K･kcal/mol; at PGRMC1 T146W, 2.64 K･kcal/mol. The ΔG on PGRMC1 G108W is -5.09 kcal/mol; at PGRMC1 F128W it was -5.27 kcal/mol; on PGRMC1 K132V, -5.56 kcal/mol. For the same molecule, the ΔH on PGRMC1 G108W was -3.51 kcal/mol; at PGRMC1 G111W it was -1.86 kcal/mol; on PGRMC1 F128W it was -4.90 kcal/mol; on PGRMC1 K132V, -1.01 kcal/mol; on PGRMC1 T146W it was -2.17 kcal/mol.
